Reference: patent US20240132431A1, “METHOD FOR ALKYLATING ACIDIC FUNCTIONAL GROUP” (Chugai Seiyaku Kabushiki Kaisha, priority 2021, published 2024)

Biological target: T1, Bcl-2 protein (Recombinant Human Bcl-2 Protein) (Homo sapiens, UniProt P10415)
T1 construct: purchased Novus NBP2-34889
Assay: Binding evaluation of mixture library compounds to Bcl-2 using AS-MS (affinity selection mass spectrometry)
Conditions: for ASMS ratio (%) n = 1 / ASMS ratio (%) n = 2: ASMS Ratio(%)=(A−C)/B×100; for ASMS ratio (%) n = 1: replicate n = 1; for ASMS ratio (%) n = 2: replicate n = 2
Summary of the method: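 Bcl-2 binding is scored from LC/MS signal retained with protein through gel-filtration spin columns, normalised to unfiltered and protein-free controls. Incubation: 20 μM protein, […] per compound, 1 h, 23° C.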

[1] = AS-MS on the mixture of 1200 library compounds
[2] = AS-MS, mixture of 1200 compounds, Bcl-2

T1 sequence (P10415 whole entry): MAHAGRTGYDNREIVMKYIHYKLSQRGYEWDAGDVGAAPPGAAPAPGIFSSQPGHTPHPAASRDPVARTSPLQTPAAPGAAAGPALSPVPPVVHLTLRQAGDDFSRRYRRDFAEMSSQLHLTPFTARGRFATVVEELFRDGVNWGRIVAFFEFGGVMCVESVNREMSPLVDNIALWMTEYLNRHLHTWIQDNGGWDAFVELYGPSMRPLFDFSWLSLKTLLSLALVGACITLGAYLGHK

Row | Compound | ASMS ratio (%) n = 1 [1] [%] | ASMS ratio (%) n = 2 [1] [%] | ASMS ratio (%) n = 2 [2] [%] | further results
1 | 4-[4-[[4-(5-Ethoxypyridin-3-yl)-3-fluorophenyl]methyl]piperazin-1-yl]-N-propylbenzamide [B1M085-01] | 0.0 | 0.0 |  | 
2 | CCOc1cccc(C#Cc2ccccc2CN2CCN(c3ccc(C(=O)NS(=O)(=O)c4ccc(NCCSc5ccccc5)c([N+](=O)[O-])c4)nn3)CC2)c1 [B2Q095-01] |  |  |  | ASMS ratio (%) n = 1 (AS-MS, mixture library, Bcl-2): 19.9%; ASMS ratio (%) n = 2 (AS-MS, mixture library, Bcl-2): 11.9%
3 | CCOc1cccc(-c2cnn(-c3cc(C(=O)N4CCN(c5ccc(C(=O)N(CC)CC)nn5)CC4)cc(C(F)(F)F)c3)c2)c1 [B4J021-01, 6-[4-[3-[4-(3-Ethoxyphenyl)pyrazol-1-yl]-5-(trifluoromethyl)benzoyl]piperazin-1-yl]-N,N-diethylpyridazine-3-carboxamide] | 0.0 | 0.0 |  | 
4 | CCOc1cccc(-c2csc(CN3CCN(c4ccc(C(=O)NS(C)(=O)=O)cc4)CC3)c2)c1 [B2I067-01, 4-[4-[[4-(3-Ethoxyphenyl)thiophen-2-yl]methyl]piperazin-1-yl]-N-methylsulfonylbenzamide] |  |  |  | ASMS ratio (%) (n = 1): 0.0%; ASMS ratio (%) (n = 2): 0.0%
5 | CCOc1cncc(-c2cc(OC)c(CN3CCN(c4ccc(C(=O)NCC(F)(F)F)nn4)CC3)c(OC)c2)c1 [B1K086-01, 6-[4-[[4-(5-Ethoxypyridin-3-yl)-2,6-dimethoxyphenyl]methyl]piperazin-1-yl]-N-(2,2,2-trifluoroethyl)pyridazine-3-carboxamide] |  |  | 0.0 | 
6 | CCOc1cncc(-c2ccc(CN3CCN(c4ccc(C(=O)NCC(F)(F)F)nn4)CC3)cc2F)c1 [B1K078-01, 6-[4-[[4-(5-Ethoxypyridin-3-yl)-3-fluorophenyl]methyl]piperazin-1-yl]-N-(2,2,2-trifluoroethyl)pyridazine-3-carboxamide] |  |  | −0.2 | ASMS ratio (%) n = 1 [2]: 0.8%
7 | CCOc1cccc(-c2ccc(CN3CCN(c4ccc(C(=O)N(CC)CC)nn4)CC3)c(CC)c2)c1 [B4J075-01, 6-[4-[[4-(3-Ethoxyphenyl)-2-ethylphenyl]methyl]piperazin-1-yl]-N,N-diethylpyridazine-3-carboxamide] |  |  |  | ASMS ratio (%) n = 1 (AS-MS, mixture library, Bcl-2): 0.0%; ASMS ratio (%) n = 2 (AS-MS, mixture library, Bcl-2): 0.0%
8 | CCOc1cncc(-c2cc(C(=O)N3CCN(c4ccc(C(=O)NS(=O)(=O)CCC(F)(F)F)nn4)CC3)cc(C(F)(F)F)c2)c1 [B2N018-01, 6-[4-[3-(5-Ethoxypyridin-3-yl)-5-(trifluoromethyl)benzoyl]piperazin-1-yl]-N-(3,3,3-trifluoropropylsulfonyl)pyridazine-3-carboxamide] |  |  |  | ASMS ratio (%) (n = 1): 0.0%; ASMS ratio (%) (n = 2): 1.0%

Second part, led by results:

Row | ASMS ratio (%) n = 1 [1] [%] | ASMS ratio (%) n = 2 [1] [%] | ASMS ratio (%) n = 2 [2] [%] | Compound | further results
9 | 1.5 | 3.6 |  | CCOc1cncc(-c2ccccc2CN2CCN(c3ccc(C(=O)N(C)CC45CC6CC(CC(C6)C4)C5)cc3)CC2)c1 [B3A046-01, N-(1-Adamantylmethyl)-4-[4-[[2-(5-ethoxypyridin-3-yl)phenyl]methyl]piperazin-1-yl]-N-methylbenzamide] | 
10 |  |  | 0.0 | CCOc1cncc(-c2ccccc2CCC(=O)N2CCN(c3ccc(C(=O)NCC45CC6CC(CC(C6)C4)C5)nn3)CC2)c1 [B1A012-01, N-(1-Adamantylmethyl)-6-[4-[3-[2-(5-ethoxypyridin-3-yl)phenyl]propanoyl]piperazin-1-yl]pyridazine-3-carboxamide] | ASMS ratio (%) n = 1 [2]: 0.0%
11 | 2.8 | −3.3 |  | CCOc1cncc(-c2ccc(C(=O)N3CCN(c4ccc(C(=O)N(C)CC56CC7CC(CC(C7)C5)C6)cc4)CC3)c3ccccc23)c1 [B3A036-01, N-(1-Adamantylmethyl)-4-[4-[4-(5-ethoxypyridin-3-yl)naphthalene-1-carbonyl]piperazin-1-yl]-N-methylbenzamide] | 
12 |  |  | 0.5 | CCOc1cncc(-c2cc(C(=O)N3CCN(c4ccc(C(=O)NCC(F)(F)F)nn4)CC3)cc(C(F)(F)F)c2)c1 [B1K018-01, 6-[4-[3-(5-Ethoxypyridin-3-yl)-5-(trifluoromethyl)benzoyl]piperazin-1-yl]-N-(2,2,2-trifluoroethyl)pyridazine-3-carboxamide] | ASMS ratio (%) n = 1 [2]: −0.6%
